According to paper PMC9090415, “Discovery of small molecule inhibitors of Plasmodium falciparum apicoplast DNA polymerase” (Journal of Enzyme Inhibition and Medicinal Chemistry, 2022):

Molecular target: P. falciparum apicoplast DNA polymerase (Pf-apPOL) (Plasmodium falciparum, UniProt Q8ILY1)
Test: Fluorescence-based high-throughput DNA polymerase assay (molecular beacon), primary screen and dose-response
Format: biochemical
Conditions: for DNA Pol: unit not given, 90 min, 10 µM; for % inhibition Apo pol 10' 2.5 / % inhibition Apo pol 10' 5 / % inhibition Apo pol 10' 10 / % inhibition Apo pol 10' 20 / % inhibition Apo pol 10' 40 / % inhibition Apo pol 10' 80: read at 10'; for % inhibition Apo pol 10' 80 / % inhibition Apol 90' 80 / % inhibition apPOL 180' 80 / % inhibition Apo pol 5' 80 / % inhibition Apol 40' 80 / % inhibition ApPOL 90' 80: concentration 80; for % inhibition Apol 90' 2.5 / % inhibition Apol 90' 5 / % inhibition Apol 90' 10 / % inhibition Apol 90' 20 / % inhibition Apol 90' 40 / % inhibition Apol 90' 80 / % inhibition ApPOL 90' 2.5 / % inhibition ApPOL 90' 5 / % inhibition ApPOL 90' 10 / % inhibition ApPOL 90' 20 / % inhibition ApPOL 90' 40 / % inhibition ApPOL 90' 80: read at 90'; for % inhibition apPOL 180' 2.5 / % inhibition apPOL 180' 5 / % inhibition apPOL 180' 10 / % inhibition apPOL 180' 20 / % inhibition apPOL 180' 40 / % inhibition apPOL 180' 80: read at 180'; for % inhibition Apo pol 5' 2.5 / % inhibition Apo pol 5' 5 / % inhibition Apo pol 5' 10 / % inhibition Apo pol 5' 20 / % inhibition Apo pol 5' 40 / % inhibition Apo pol 5' 80: read at 5'; for % inhibition Apol 40' 2.5 / % inhibition Apol 40' 5 / % inhibition Apol 40' 10 / % inhibition Apol 40' 20 / % inhibition Apol 40' 40 / % inhibition Apol 40' 80: read at 40'
Summary of the method: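 Single-point screening used 10 µM compound with 20 nM polymerase, 20 nM hairpin substrate and 6 µM dNTPs for 90 min at 25 °C. Confirmatory titrations (2.5–80 µM) followed fluorescence at three times, and IC50 was derived from a fit including a cooperativity term n.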

[1] = 186 hits, DNA Pol (screen value)

Chain of P. falciparum apicoplast DNA polymerase (Pf-apPOL) (Q8ILY1 entry or part of it): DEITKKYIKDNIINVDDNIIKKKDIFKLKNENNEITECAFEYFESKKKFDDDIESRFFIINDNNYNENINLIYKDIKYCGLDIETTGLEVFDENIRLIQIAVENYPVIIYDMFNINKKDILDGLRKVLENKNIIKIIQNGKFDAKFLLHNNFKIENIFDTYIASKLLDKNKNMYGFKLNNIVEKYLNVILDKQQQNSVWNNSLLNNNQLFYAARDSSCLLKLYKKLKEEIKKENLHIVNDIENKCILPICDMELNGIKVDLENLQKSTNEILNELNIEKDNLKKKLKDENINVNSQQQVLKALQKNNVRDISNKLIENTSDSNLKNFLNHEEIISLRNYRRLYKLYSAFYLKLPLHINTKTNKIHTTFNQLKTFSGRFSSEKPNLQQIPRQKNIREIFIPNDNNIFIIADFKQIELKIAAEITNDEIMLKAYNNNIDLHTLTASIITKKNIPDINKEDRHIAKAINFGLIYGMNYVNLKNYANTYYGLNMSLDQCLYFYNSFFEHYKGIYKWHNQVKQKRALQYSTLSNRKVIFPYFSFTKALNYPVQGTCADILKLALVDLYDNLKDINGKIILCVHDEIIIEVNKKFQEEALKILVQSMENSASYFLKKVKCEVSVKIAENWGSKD

## Nc1cc(Oc2ccc(O)c(N)c2)ccc1O [KU0034728]
[1]
  DNA Pol: 65
'DNA Pol' (screen value)
  DNA Pol: 65
DRC-1, concentration 2.5
  % inhibition Apo pol 10' 2.5: 19.846%
  % inhibition Apol 90' 2.5: 8.186%
  % inhibition apPOL 180' 2.5: 2.338%
DRC-1, concentration 5
  % inhibition Apo pol 10' 5: 31.2811%
  % inhibition Apol 90' 5: 16.785%
  % inhibition apPOL 180' 5: 7.101%
DRC-1, concentration 10
  % inhibition Apo pol 10' 10: 55.4709%
  % inhibition Apol 90' 10: 34.847%
  % inhibition apPOL 180' 10: 22.2951%
DRC-1, concentration 20
  % inhibition Apo pol 10' 20: 70.5604%
  % inhibition Apol 90' 20: 48.9946%
  % inhibition apPOL 180' 20: 34.6321%
DRC-1, concentration 40
  % inhibition Apo pol 10' 40: 80.3003%
  % inhibition Apol 90' 40: 59.758%
  % inhibition apPOL 180' 40: 46.6312%
DRC-1
  % inhibition Apo pol 10' 80: 87.2374%
  % inhibition Apol 90' 80: 68.9049%
  % inhibition apPOL 180' 80: 55.3391%
DRC-2, 5', concentration 5
  % inhibition Apo pol 5': 43%
DRC-2, concentration 20
  % inhibition Apol 40': 65%
  % inhibition ApPOL 90': 65%
  % inhibition Apo pol 5' 20: 52%
  % inhibition Apol 40' 20: 65%
  % inhibition ApPOL 90' 20: 65%
  % inhibition apPOL 180' 20: 59%
DRC-2, concentration 40
  % inhibition Apol 40': 74%
  % inhibition apPOL 180': 74%
  % inhibition Apo pol 5' 40: 56%
  % inhibition Apol 40' 40: 74%
  % inhibition ApPOL 90' 40: 76%
  % inhibition apPOL 180' 40: 74%
DRC-2, concentration 2.5
  % inhibition ApPOL 90': 43%
  % inhibition Apo pol 5' 2.5: 42%
  % inhibition Apol 40' 2.5: 47%
  % inhibition ApPOL 90' 2.5: 43%
  % inhibition apPOL 180' 2.5: 31%
DRC-2, concentration 10
  % inhibition apPOL 180': 43%
  % inhibition Apo pol 5' 10: 50%
  % inhibition Apol 40' 10: 57%
  % inhibition ApPOL 90' 10: 55%
  % inhibition apPOL 180' 10: 43%
DRC-2, concentration 5
  % inhibition Apo pol 5' 5: 43%
  % inhibition Apol 40' 5: 44%
  % inhibition ApPOL 90' 5: 40%
  % inhibition apPOL 180' 5: 26%
DRC-2
  % inhibition Apo pol 5' 80: 30%
  % inhibition Apol 40' 80: 64%
  % inhibition ApPOL 90' 80: 71%
  % inhibition apPOL 180' 80: 75%

## CC(=O)OCC1=C(C(=O)[O-])N2C(=O)[C@@H](NC(=O)Cc3cccs3)[C@H]2SC1.[Na+] [Molecule 73, CC(=O)OCC1=C(C(=O)[O-])N2[C@H](SC1)[C@@H](C2=O)NC(=O)Cc1cccs1.[Na+]]
[1]
  DNA Pol: 62
'DNA Pol' (screen value)
  DNA Pol: 62
DRC-1, concentration 2.5
  % inhibition Apo pol 10' 2.5: 15.9246%
  % inhibition Apol 90' 2.5: -0.64%
  % inhibition apPOL 180' 2.5: -8.644%
DRC-1, concentration 5
  % inhibition Apo pol 10' 5: 24.2196%
  % inhibition Apol 90' 5: -0.282%
  % inhibition apPOL 180' 5: -9.547%
DRC-1, concentration 10
  % inhibition Apo pol 10' 10: 38.6298%
  % inhibition Apol 90' 10: 6.863%
  % inhibition apPOL 180' 10: -4.869%
DRC-1, concentration 20
  % inhibition Apo pol 10' 20: 52.9189%
  % inhibition Apol 90' 20: 14.2955%
  % inhibition apPOL 180' 20: -0.1262%
DRC-1, concentration 40
  % inhibition Apo pol 10' 40: 72.9017%
  % inhibition Apol 90' 40: 36.8577%
  % inhibition apPOL 180' 40: 18.2499%
DRC-1
  % inhibition Apo pol 10' 80: 83.4409%
  % inhibition Apol 90' 80: 67.9349%
  % inhibition apPOL 180' 80: 56.6871%
DRC-2, concentration 2.5
  % inhibition Apol 40': 1.25%
  % inhibition ApPOL 90': 1.25%
  % inhibition Apo pol 5' 2.5: 3%
  % inhibition Apol 40' 2.5: 1.25%
  % inhibition ApPOL 90' 2.5: 1.25%
  % inhibition apPOL 180' 2.5: -0.311%
DRC-2, concentration 20
  % inhibition Apol 40': 29%
  % inhibition Apo pol 5' 20: 36%
  % inhibition Apol 40' 20: 29%
  % inhibition ApPOL 90' 20: 20%
  % inhibition apPOL 180' 20: 10%
DRC-2, concentration 40
  % inhibition apPOL 180': 29%
  % inhibition Apo pol 5' 40: 43%
  % inhibition Apol 40' 40: 45%
  % inhibition ApPOL 90' 40: 39%
  % inhibition apPOL 180' 40: 29%
DRC-2, concentration 5
  % inhibition Apo pol 5' 5: 6.34%
  % inhibition Apol 40' 5: 2%
  % inhibition ApPOL 90' 5: -1.85%
  % inhibition apPOL 180' 5: -7%
DRC-2, concentration 10
  % inhibition Apo pol 5' 10: 22%
  % inhibition Apol 40' 10: 13%
  % inhibition ApPOL 90' 10: 5%
  % inhibition apPOL 180' 10: -2.83%
DRC-2
  % inhibition Apo pol 5' 80: 50%
  % inhibition Apol 40' 80: 62%
  % inhibition ApPOL 90' 80: 63%
  % inhibition apPOL 180' 80: 60%
